Values joined by “and” are separate entries in the source; they are usually repeats but may differ in a detail not shown here. Equal entries are not always repeated. Where two headings read alike, the source gives them in different places.
Test: Phase 1 single dose pharmacokinetic study of eliglustat tartrate in severe renal impairment and matched normal renal function subjects (Example 3)
Format: in vivo, human
Conditions: for AUC / Cmax / AUC(0-inf) / AUC(0-t) / Vd/F / Tmax: human, 100 mg; for AUC: read-out: AUC, geometric mean
Procedure: A phase 1, open-label, 2-stage, pharmacokinetic and tolerability study of single dose eliglustat tartrate in subjects with renal impairment (RI) (mild, moderate, and severe) and subjects with normal renal function, matched to RI subjects by age, weight, and cytochrome P450 [CYP] 2D6 phenotype was carried out to study the effect of mild, moderate, and severe RI on the pharmacokinetics (PK) of eliglustat.
Methodology: A phase 1, open-label, 2-stage, pharmacokinetic and tolerability study of single dose eliglustat tartrate in subjects with renal impairment (RI) (mild, moderate, and severe) and subjects with normal renal function, matched to RI subjects by age, weight, and cytochrome P450 [CYP] 2D6 phenotype.
Approximately 32 subjects were planned to be enrolled in 2 stages: Stage 1 comprised of 8 subjects with severe RI and 8 subjects with normal renal function, matched by CYP2D6 phenotype, weight, and age. […] Stage 2 was to include 8 subjects with mild and 8 subjects with moderate RI. Each cohort was to enroll at least 6 CYP2D6 extensive metabolizers (EMs). The remaining 2 subjects were to be poor metabolizers (PMs), intermediate metabolizers (IMs) or EMs, enrolled according to the following preference: at least 20 subjects were to be screened for each cohort and if identified, up to 2 PMs were to be enrolled. If less than 2 PMs were identified, up to 2 IMs were to be enrolled for a total of 8 subjects. If less than 2 PMs and IMs were identified, up to 2 additional EMs were to be enrolled for a total of 8 subjects. Allowed concomitant medications included no more than one weak CYP3A inhibitor and one weak CYP2D6 inhibitor, alone or in combination.
CYP2D6 EMs and IMs were to receive a single 100 mg dose of eliglustat tartrate while CYP2D6 PMs were to receive a single 50 mg dose of eliglustat tartrate.
Normal renal function subjects: Male or female subjects, between 18 and 79 years, inclusive, body weight within 15% of the body weight of matched subject with RI, BMI between 18.0 and 37.0 kg/m^2 and a CrCl of >80 mL/min. Healthy subjects were also matched by age and CYP2D6 predicted phenotype based on genotype.
A single 100 mg capsule of eliglustat tartrate (equivalent to 84 mg of eliglustat) was to be administered to CYP2D6 EM or IM subjects with RI and matching healthy subjects.
Pharmacokinetics: Plasma eliglustat concentrations were used to determine the following PK parameters using noncompartmental methods: Maximum plasma concentration observed (Cmax), first time to reach Cmax (tmax), area under the plasma concentration versus time curve calculated using the trapezoidal method from time zero to the time corresponding to the last concentration above the limit of quantification, tlast (AUClast), area under the plasma concentration time curve extrapolated to infinity (AUC), terminal half-life associated with the terminal slope Xz (t1/2z), apparent total body clearance of a drug from plasma (CL/F), and apparent volume of distribution during the terminal phase (VZ/F).
Blood samples were collected at the following time points to assess plasma concentrations of eliglustat: predose, and 0.5, 1, 1.5, 2, 2.5, 3, 4, 6, 8, 10, 12, 24, and 36 hours postdose.
Eliglustat concentrations in plasma were determined using a validated liquid chromatography tandem mass spectrometry method with a lower limit of quantification (LLOQ) of 0.2 ng/mL.
Eliglustat PK parameters were summarized using descriptive statistics for each population group and for each CYP2D6 phenotype. For log-transformed Cmax, AUClast, AUC, t1/2z, CL/F, and Vz/F, the effect of severe RI on eliglustat PK parameters after a single dose of eliglustat tartrate was analyzed using a linear fixed effects model on CYP2D6 EM subjects. Inclusion of population, CYP3A weak inhibitor, age, and weight as covariate was selected manually, choosing the model with the lowest AlC value. After testing, the final model chosen were those with only population as fixed term. […]

[1] = CYP2D6 EM, healthy, N=7, single oral 100 mg eliglustat tartrate, plasma
[2] = CYP2D6 EM, severe RI, N=7, single oral 100 mg eliglustat tartrate, plasma
[3] = CYP2D6 IM, healthy, N=1, single oral 100 mg eliglustat tartrate, plasma
[4] = IM severe RI subject taking escitalopram and amlodipine
[5] = Severe RI vs Healthy, CYP2D6 EM subjects (7 severe RI and 7 healthy)

Compound: CCCCCCCC(=O)N[C@H](CN1CCCC1)[C@H](O)c1ccc2c(c1)OCCO2 [eliglustat, N-((1R,2R)-1-(2,3-dihydrobenzo[b][1,4]dioxin-6-yl)-1-hydroxy-3-(pyrrolidin-1-yl)propan-2-yl)octanamide]
- CL/F, geometric mean [1]: (834) [55.2] L/h
- CL/F, mean ± SD [1]: 963 ± 532 L/h
- t1/2z, geometric mean [1]: (8.39) [17.8] h
- t1/2z, mean ± SD [1]: 8.50 h and 8.50 ± 1.51 h
- tlast, median [1]: 36.00 h
- CL/F, geometric mean [2]: (845) [39.2] L/h
- CL/F, mean ± SD [2]: 903 ± 354 L/h
- t1/2z, geometric mean [2]: (6.51) [13.3] h
- t1/2z, mean ± SD [2]: 6.56 h and 6.56 ± 0.876 h
- tlast, median [2]: 36.00 h
- CL/F [3]: 151 L/h
- t1/2z [3]: 9.59 h
- tlast [3]: 36.00 h
- tlast (CYP2D6 IM, severe RI, N=1, taking escitalopram and amlodipine, single oral 100 mg eliglustat tartrate, plasma): 36.00 h
- AUClast ratio, CYP2D6 IM with severe RI vs CYP2D6 EM with severe RI [4]: 35.2 fold
- AUClast ratio, CYP2D6 IM with severe RI vs CYP2D6 IM healthy subject [4]: 6.90 fold
- AUClast ratio, CYP2D6 IM with severe RI vs healthy CYP2D6 EMs [4]: 32.1 fold
- AUClast geometric mean ratio, point estimate [5]: 0.994
- CL/F geometric mean ratio, point estimate [5]: 1.014
- Vz/F geometric mean ratio, point estimate [5]: 0.787
- t1/2z geometric mean ratio, point estimate [5]: 0.776
- AUC (both sexes, plasma, oral, CYP2D6 EM, severe RI, coadministered weak CYP3A inhibitor amlodipine, N=5): 98.3 ng·h/mL
- Cmax (both sexes, plasma, oral, CYP2D6 EM, severe RI, coadministered weak CYP3A inhibitor amlodipine, N=5, read-out: Cmax, geometric mean): 10.6 ng/mL
- AUC (both sexes, plasma, oral, CYP2D6 EM, severe RI, eliglustat tartrate alone, N=2): 104 ng·h/mL
- Cmax (both sexes, plasma, oral, CYP2D6 EM, severe RI, eliglustat tartrate alone, N=2, read-out: Cmax, geometric mean): 15.2 ng/mL
- AUC(0-inf) (both sexes, plasma, po, CYP2D6 EM, healthy, N=7, single oral 100 mg eliglustat tartrate, plasma, read-out: AUC (extrapolated to infinity), geometric mean): 101 ng·h/mL
- AUC(0-inf) (both sexes, plasma, po, CYP2D6 EM, healthy, N=7, single oral 100 mg eliglustat tartrate, plasma, read-out: AUC (extrapolated to infinity), mean ± SD): 118 ± 71.1 ng·h/mL
- AUC(0-t) (both sexes, plasma, po, CYP2D6 EM, healthy, N=7, single oral 100 mg eliglustat tartrate, plasma, read-out: AUClast, geometric mean): 96 ng·h/mL
- AUC(0-t) (both sexes, plasma, po, CYP2D6 EM, healthy, N=7, single oral 100 mg eliglustat tartrate, plasma, read-out: AUClast, mean ± SD): 112 ± 68.7 ng·h/mL
- Cmax (both sexes, plasma, po, CYP2D6 EM, healthy, N=7, single oral 100 mg eliglustat tartrate, plasma, read-out: Cmax, geometric mean): 13.4 ng/mL
- Cmax (both sexes, plasma, po, CYP2D6 EM, healthy, N=7, single oral 100 mg eliglustat tartrate, plasma, read-out: Cmax, mean ± SD): 17.6 ± 13.2 ng/mL
- Vd/F (both sexes, plasma, po, CYP2D6 EM, healthy, N=7, single oral 100 mg eliglustat tartrate, plasma, read-out: Vz/F, geometric mean): 10100 L
- Vd/F (both sexes, plasma, po, CYP2D6 EM, healthy, N=7, single oral 100 mg eliglustat tartrate, plasma, read-out: Vz/F, mean ± SD): 11700 ± 6710 L
- Tmax (both sexes, plasma, po, CYP2D6 EM, healthy, N=7, single oral 100 mg eliglustat tartrate, plasma, read-out: tmax, median): 1.5 h
- Cmax (both sexes, plasma, po, CYP2D6 EM, severe RI, N=7 (5 taking amlodipine), single oral 100 mg eliglustat tartrate, plasma, read-out: Cmax, mean ± SD): 12.7 ± 4.85 ng/mL
- AUC(0-inf) (both sexes, plasma, po, CYP2D6 EM, severe RI, N=7, single oral 100 mg eliglustat tartrate, plasma, read-out: AUC (extrapolated to infinity), geometric mean): 99.8 ng·h/mL
- AUC(0-inf) (both sexes, plasma, po, CYP2D6 EM, severe RI, N=7, single oral 100 mg eliglustat tartrate, plasma, read-out: AUC (extrapolated to infinity), mean ± SD): 107 ± 42.1 ng·h/mL
- AUC(0-t) (both sexes, plasma, po, CYP2D6 EM, severe RI, N=7, single oral 100 mg eliglustat tartrate, plasma, read-out: AUClast, geometric mean): 95.5 ng·h/mL
- AUC(0-t) (both sexes, plasma, po, CYP2D6 EM, severe RI, N=7, single oral 100 mg eliglustat tartrate, plasma, read-out: AUClast, mean ± SD): 102 ± 41.7 ng·h/mL
- Cmax (both sexes, plasma, po, CYP2D6 EM, severe RI, N=7, single oral 100 mg eliglustat tartrate, plasma, read-out: Cmax, geometric mean): 11.8 ng/mL
- Vd/F (both sexes, plasma, po, CYP2D6 EM, severe RI, N=7, single oral 100 mg eliglustat tartrate, plasma, read-out: Vz/F, geometric mean): 7940 L
- Vd/F (both sexes, plasma, po, CYP2D6 EM, severe RI, N=7, single oral 100 mg eliglustat tartrate, plasma, read-out: Vz/F, mean ± SD): 8480 ± 3190 L
- Tmax (both sexes, plasma, po, CYP2D6 EM, severe RI, N=7, single oral 100 mg eliglustat tartrate, plasma, read-out: tmax, median): 4 h
- AUC(0-inf) (plasma, oral, CYP2D6 IM, healthy, N=1, single oral 100 mg eliglustat tartrate, plasma, read-out: AUC (extrapolated to infinity)): 559 ng·h/mL
- AUC(0-t) (plasma, oral, CYP2D6 IM, healthy, N=1, single oral 100 mg eliglustat tartrate, plasma, read-out: AUClast): 520 ng·h/mL
- Cmax (plasma, oral, CYP2D6 IM, healthy, N=1, single oral 100 mg eliglustat tartrate, plasma, read-out: Cmax): 54.7 ng/mL
- Vd/F (plasma, oral, CYP2D6 IM, healthy, N=1, single oral 100 mg eliglustat tartrate, plasma, read-out: Vz/F): 2090 L
- Tmax (plasma, oral, CYP2D6 IM, healthy, N=1, single oral 100 mg eliglustat tartrate, plasma, read-out: tmax): 3 h
- AUC(0-t) (plasma, oral, CYP2D6 IM, severe RI, N=1, taking escitalopram and amlodipine, single oral 100 mg eliglustat tartrate, plasma, read-out: AUClast): 3590 ng·h/mL
- Cmax (plasma, oral, CYP2D6 IM, severe RI, N=1, taking escitalopram and amlodipine, single oral 100 mg eliglustat tartrate, plasma, read-out: Cmax): 220 ng/mL
- Tmax (plasma, oral, CYP2D6 IM, severe RI, N=1, taking escitalopram and amlodipine, single oral 100 mg eliglustat tartrate, plasma, read-out: tmax): 4 h
